Measurements as given in US20240090546A1, “COMPOSITIONS COMPRISING AND METHODS OF USING 1,3-PROPANEDIOL, TO IMPROVE SWEETNESS AND/OR REDUCE BITTERNESS OF SWEETENERS” (Primient Covation LLC, priority 2022, published 2024).

Tests used:
Assay type in all cases: in vivo, human
[1] = test system: Six panelists experienced in the evaluation of food and beverages; test: Tasting of sweeteners with and without Zemea USP-FCC propanediol; settings: sweetener with 5 ppm Zemea USP-FCC Propanediol versus without
Description: Six panelists experienced in the evaluation of food and beverages tasted sweeteners and commercial beverages with and without the addition of Zemea USP-FCC propanediol. The six panelists tasted the products and discussed their perceptions of the flavor. They indicated whether the test or control product in each pair was sweeter, less bitter, and/or less sour.

panelists [2] = test: Flash profile blind tasting of beverages and bitter substances with Zemea USP-FCC added; settings: Zemea added at 5-940 ppm to the beverages and bitter substances of Table 1; blind tasting by N>6
Description: (§1) • 1. Panelists: Recruit at least 5 and preferably 12 staff who has no allergy to the big 8 food allergens. • 2. Prototypes: • a. Freshly made to same age (<1 week if possible) • b. Serve all samples at same size (>1 oz for beverages), and at same temperature (70F for foods, 40F for beverages) • 3. Random coded (3-digit) and random ordered up to 5 samples • 4. Keep to less than 5 samples per panel session. Less than 4 panels/day. • 5. For each panelist, ship (under covid-19): • a. one set of 5 samples • b. one instruction (this page) ballot (attachment 1) and one example for how to fill in (attachment 2) • c. one bottled water (Aquafina or equivalent, no minerals added. Panelist to bring own under covid-19) • 6. […] Describe the panelists how to blind-taste same day upon receipt according to panelists instruction below. • 8. […] Ask each panelist to scan/send a picture of the filled-in ballot to panel leader. Panel leader will issue a “directional analysis” (1 day) as a minimum and may include PCA (3 days) leading to conclusions and recommendations.
(§2) Instruction for Flash Profiling Method panelists: • 1. […] Please taste this set mid-morning (9a-N) or mid-afternoon (2-4p) if possible • 3. Arrange the 5 samples in front of you in any order • 4. For the Flash Profiling Method ballot, fill in today's Date, your Name, and Sample (s) as “project xxx-Round x samples” • 5. […]

[3] = test system: Six panelists experienced in the evaluation of food and beverages; test: Screening of Zemea USP-FCC at 5, 20 and 100 ppm in reduced sugar stevia sweetened orange juice; settings: 5 ppm, compared with 20 and 100 ppm and control
Description: Six panelists experienced in the evaluation of food and beverages screened Zemea® USP-FCC at 5, 20, and 100 ppm in a reduced sugar stevia sweetened orange juice. The reduced sugar stevia sweetened orange juice containing no Zemea® USP-FCC was used as the control.

40 untrained panelists = test: Paired comparison test for bitterness, reduced sugar stevia sweetened orange juice
Description: Paired comparison tests for bitterness were conducted on 40 untrained panelists. The reduced sugar stevia sweetened orange juice was used as the control and was prepared with 0.0005% Zemea® USP-FCC (5 ppm) as the test variable. The products were served in 2-ounce soufflé cups labeled with 3-digit codes at refrigerated temperatures. The panelists were asked to identify the sample that was more bitter. Bottled water and unsalted crackers were available for panelists to clear their palates before and during testing.

panelists [4] = test: Absolute taste threshold of Zemea USP-FCC PDO in water (flash profile, blind tasting); settings: at 690 ppm (FEMA #4753 use limit for beverages)
Description: as §1, §2

O=C(CO)C(O)C(O)C(O)CO (stereo not shown) [Allulose]
Effect [1]: Enhanced sweetness

OC[C@@H](O)[C@@H](O)CO [Erythritol]
Effect [1]: Enhanced sweetness

OC[C@H]1O[C@@](CO)(O[C@H]2O[C@H](CO)[C@@H](O)[C@H](O)[C@H]2O)[C@@H](O)[C@@H]1O [Sucrose, sucrose]
Effect [1]: Enhanced sweetness

O=C(CO)[C@@H](O)[C@@H](O)[C@H](O)CO [Tagatose]
Effect [1]: Enhanced sweetness

OCCCO [Zemea® USP-FCC Propanediol, 1,3-propanediol]
bitterness of individual ingredients and beverages (panelists [2]): less bitter | liking of individual ingredients and beverages (panelists [2]): more liked | bitterness perception [3]: lowest bitterness perception | number of 40 untrained panelists who identified the sample as more bitter (40 untrained panelists; 5 ppm (0.0005%) in stevia-sweetened orange juice, control chosen by 26, one-tailed exact p-value 0.04): 14 | bitterness versus control containing no Zemea USP-FCC (40 untrained panelists; 5 ppm added directly to reduced sugar orange juice with stevia, p-value 0.04, one-tailed): statistically less bitter | taste of Zemea USP-FCC PDO (panelists [4]): tasteless
